Assay: xn = mol fraction of the nth substance listed
Conditions: 100 kPa, Liquid; for speed of sound: Frequency=2 MHz

CCNCCO [2-(ethylamino)ethanol] + CCN1CCCC1=O
Conditions | mass density [kg/m3] | speed of sound [m/s] | viscosity [mPa·s]
293.15 K, x2 = 0 | 917.79 | 1442.4 | 15.28
293.15 K, x2 = 0.111 | 925.54 | 1444.5 | 10.35
293.15 K, x2 = 0.2179 | 933.77 | 1448.8 | 7.447
293.15 K, x2 = 0.3242 | 941.8 | 1453.7 | 5.665
293.15 K, x2 = 0.4274 | 949.86 | 1459.7 | 4.571
293.15 K, x2 = 0.5359 | 958.36 | 1468 | 3.849
293.15 K, x2 = 0.6269 | 965.64 | 1473.3 | 3.126
293.15 K, x2 = 0.7225 | 973.71 | 1482 | 2.717
293.15 K, x2 = 0.8177 | 981.7 | 1491.1 | 2.458
293.15 K, x2 = 0.9095 | 989.6 | 1501 | 2.261
303.15 K, x2 = 0 | 909.82 | 1408.3 | 9.59
303.15 K, x2 = 0.111 | 917.42 | 1409.8 | 6.874
303.15 K, x2 = 0.2179 | 925.53 | 1413.7 | 5.212
303.15 K, x2 = 0.3242 | 933.46 | 1418.1 | 4.093
303.15 K, x2 = 0.4274 | 941.44 | 1423.5 | 3.257
303.15 K, x2 = 0.5359 | 949.89 | 1431.6 | 2.917
303.15 K, x2 = 0.6269 | 957.14 | 1436.5 | 2.458
303.15 K, x2 = 0.7225 | 965.19 | 1445 | 2.205
303.15 K, x2 = 0.8177 | 973.17 | 1453.7 | 2.013
303.15 K, x2 = 0.9095 | 981.06 | 1463.3 | 1.891
313.15 K, x2 = 0 | 901.79 | 1374.5 | 6.406
313.15 K, x2 = 0.111 | 909.24 | 1375.4 | 4.824
313.15 K, x2 = 0.2179 | 917.23 | 1378.8 | 3.79
313.15 K, x2 = 0.3242 | 925.07 | 1382.8 | 3.092
313.15 K, x2 = 0.4274 | 932.99 | 1387.9 | 2.609
313.15 K, x2 = 0.5359 | 941.38 | 1395.5 | 2.311
313.15 K, x2 = 0.6269 | 948.61 | 1400 | 1.979
313.15 K, x2 = 0.7225 | 956.65 | 1408.2 | 1.834
313.15 K, x2 = 0.8177 | 964.63 | 1416.7 | 1.684
313.15 K, x2 = 0.9095 | 972.5 | 1425.7 | 1.578
323.15 K, x2 = 0 | 893.68 | 1340.9 | 4.527
323.15 K, x2 = 0.111 | 900.98 | 1341.1 | 3.563
323.15 K, x2 = 0.2179 | 908.86 | 1344.1 | 2.873
323.15 K, x2 = 0.3242 | 916.63 | 1347.7 | 2.399
323.15 K, x2 = 0.4274 | 924.49 | 1352.5 | 2.053
323.15 K, x2 = 0.5359 | 932.84 | 1359.8 | 1.833
323.15 K, x2 = 0.6269 | 940.06 | 1364.2 | 1.664
323.15 K, x2 = 0.7225 | 948.09 | 1372 | 1.547
323.15 K, x2 = 0.8177 | 956.06 | 1380 | 1.435
323.15 K, x2 = 0.9095 | 963.93 | 1388.8 | 1.367

CCN1CCCC1=O [1-ethyl-2-pyrrolidinone] + CNCCO
Conditions | mass density [kg/m3] | speed of sound [m/s] | viscosity [mPa·s]
293.15 K, x1 = 0.0905 | 947.11 | 1479.8 | 9.188
293.15 K, x1 = 0.1825 | 953.11 | 1478.5 | 6.79
293.15 K, x1 = 0.2767 | 958.92 | 1478.5 | 5.162
293.15 K, x1 = 0.3731 | 964.75 | 1480.1 | 4.095
293.15 K, x1 = 0.4713 | 970.4 | 1483.1 | 3.496
293.15 K, x1 = 0.5725 | 975.84 | 1486.9 | 2.951
293.15 K, x1 = 0.6756 | 981.28 | 1491.4 | 2.648
293.15 K, x1 = 0.7808 | 986.73 | 1497.9 | 2.358
293.15 K, x1 = 0.8888 | 992.12 | 1504.7 | 2.231
293.15 K, x1 = 1 | 997.71 | 1512.1 | 2.117
303.15 K, x1 = 0.0905 | 939.11 | 1447.2 | 6.239
303.15 K, x1 = 0.1825 | 944.94 | 1445.2 | 4.715
303.15 K, x1 = 0.2767 | 950.62 | 1444.1 | 3.747
303.15 K, x1 = 0.3731 | 956.31 | 1444.9 | 3.068
303.15 K, x1 = 0.4713 | 961.92 | 1447.3 | 2.666
303.15 K, x1 = 0.5725 | 967.33 | 1450.6 | 2.339
303.15 K, x1 = 0.6756 | 972.75 | 1454.6 | 2.125
303.15 K, x1 = 0.7808 | 978.18 | 1460.6 | 1.94
303.15 K, x1 = 0.8888 | 983.56 | 1467 | 1.83
303.15 K, x1 = 1 | 989.14 | 1474.2 | 1.771
313.15 K, x1 = 0.0905 | 931.05 | 1414.1 | 4.394
313.15 K, x1 = 0.1825 | 936.73 | 1411.3 | 3.488
313.15 K, x1 = 0.2767 | 942.28 | 1409.4 | 2.89
313.15 K, x1 = 0.3731 | 947.87 | 1409.5 | 2.409
313.15 K, x1 = 0.4713 | 953.42 | 1411.6 | 2.123
313.15 K, x1 = 0.5725 | 958.78 | 1414.3 | 1.914
313.15 K, x1 = 0.6756 | 964.1 | 1418 | 1.776
313.15 K, x1 = 0.7808 | 969.61 | 1423.5 | 1.639
313.15 K, x1 = 0.8888 | 974.99 | 1429.4 | 1.546
313.15 K, x1 = 1 | 980.56 | 1436 | 1.518
323.15 K, x1 = 0.0905 | 922.92 | 1381 | 3.293
323.15 K, x1 = 0.1825 | 928.44 | 1377.6 | 2.683
323.15 K, x1 = 0.2767 | 933.89 | 1375.1 | 2.267
323.15 K, x1 = 0.3731 | 939.38 | 1374.6 | 1.943
323.15 K, x1 = 0.4713 | 944.88 | 1376.1 | 1.747
323.15 K, x1 = 0.5725 | 950.21 | 1378.3 | 1.58
323.15 K, x1 = 0.6756 | 955.61 | 1381.7 | 1.478
323.15 K, x1 = 0.7808 | 961.03 | 1386.8 | 1.41
323.15 K, x1 = 0.8888 | 966.4 | 1392.3 | 1.331
323.15 K, x1 = 1 | 971.96 | 1398.5 | 1.299

From the NIST ThermoML archive (doi:10.1021/je500917k)
